Assay results from patent publication US8802439B2, “Methods for enhancing infectivity of retroviruses” (priority 2009, dated 2014).
Entries after “also recorded” stand apart in the source; their conditions may differ.

Tests used:
Format in all cases: cell-based
HIV-1-GFP = assay: Infectivity of HIV-1-GFP virions (RT-normalized), GFP fluorescence via FACS
Method: (§1) 293T cells were transfected with HIV-1-GFP, SIV-GFP, bMLV-GFP, and nMLV-GFP proviral constructs, and in each case CMV-VSV-G, in the presence or absence of PiB or excess Pin1 as described above. Released virions were normalized via RT assay (EnzChek® Reverse Transcriptase Assay Kit), and infectivity on naïve TZMb1 cells was analyzed by GFP fluorescence via FACS (% cells infected).
(§2) Infection assays for retrovirus: Single-round infections: CD4^+ TZM-bl 100,000 cells/well/mL were seeded onto 24-well plates 24 hours prior to infection. These cells were infected in quadruplicate to 24-well plates. Infectivity was scored using an enzymatic galactosidase activity assay. Specifically, infected TZM-bl cells were washed and lysed, and 20 μl of lysate was transferred to a 96-well plate for detecting β-galactosidase activity. 100 μl of reaction buffer Galacton-Star substrate (Applied Biosystems, Bedford, Mass.), diluted 1:50, was added to 20 μl of lysate, and the light emission was measured over 1 second in a microplate luminometer after 30 minutes incubation. […] Replication was monitored by p24 ELISA. […] Viruses were used to infect in duplicate wells, incubated for 48 hours, washed with PBS, trypsinized, fixed in 1% formaldehyde and subsequently analyzed by fluorescence-activated cell sorting (FACS) for percentage cells infected.
We next asked whether Pin1 influences the infectivity of other retroviruses such as SIV, bMLV and nMLV. […] However, unlike previous experiments, virions were normalized via RT assay and infectivity in target cells was analyzed by GFP fluorescence via FACS. […] Note that the observed effect of Pin1 on HIV-1 infectivity using a different means of normalizing viruses (reverse transcriptase activity vs. p24 capsid) and a different means of quantifying infectivity (GFP), agrees with our previous findings above.
We further examined whether blocking Pin1 in producer cells can enhance the infectivity of retroviruses in different primate target cells. […] Infectivity was analyzed by GFP fluorescence via FACS. […]

SIV-GFP = assay: Infectivity of SIV-GFP virions (RT-normalized), GFP fluorescence via FACS
Method: as §1
Infection assays for retrovirus: Single-round infections: CD4^+ TZM-bl 100,000 cells/well/mL were seeded onto 24-well plates 24 hours prior to infection. These cells were infected in quadruplicate to 24-well plates. Infectivity was scored using an enzymatic galactosidase activity assay. Specifically, infected TZM-bl cells were washed and lysed, and 20 μl of lysate was transferred to a 96-well plate for detecting β-galactosidase activity. 100 μl of reaction buffer Galacton-Star substrate (Applied Biosystems, Bedford, Mass.), diluted 1:50, was added to 20 μl of lysate, and the light emission was measured over 1 second in a microplate luminometer after 30 minutes incubation. For human PBMC infections, cells were exposed to 10 ng of wild-type virus for 6 hours, washed, and split into two flasks: one with 10 μM PiB added on day 0 and 3, and one without PiB. Replication was monitored by p24 ELISA. For measuring infectivity of GFP-virus, 50,000 TZMb1, sMAGI, OMK, Vero, BSC-1 and CV-1 cells/well/mL were seeded onto 6-well plates respectively 24 hours prior to infection. Viruses were used to infect in duplicate wells, incubated for 48 hours, washed with PBS, trypsinized, fixed in 1% formaldehyde and subsequently analyzed by fluorescence-activated cell sorting (FACS) for percentage cells infected.
[…]. In brief, 293T cells were transfected with a SIV-GFP (Mac293), a CMV driven plasmid encoding VSV-G envelope protein alone, or in the presence of 2.0 μM PiB, 10.0 μM PiB, 20.0 μM PiB, or 40.0 μM PiB. […] Infectivity was measured as GFP fluorescence via FACS. […]
We then examined effect of Pin blocking in non-human primate producer cells on viral infectivity. […] Infectivity was analyzed by GFP fluorescence via FACS. […]

bMLV-GFP = assay: Infectivity of bMLV-GFP virions (RT-normalized), GFP fluorescence via FACS
Method: as §1, §2
We further examined whether blocking Pin1 in producer cells can enhance the infectivity of retroviruses in different primate target cells. […] Infectivity was analyzed by GFP fluorescence via FACS. […] If more cells are infected than the number infected by viruses from untreated cells, this is expressed as a value above 100%—e.g. 2000 cells/10,000 vs 4000 cells/10,000 would be 100% and 200% respectively. […]
In addition to human producer cells, we also examined effect of blocked Pin activity on infectivity of viruses produced in mouse cell lines and nonhuman primate cell lines. […] Infectivity was analyzed by GFP fluorescence via FACS. […]

HCV = HCV infectivity titer of supernatants from persistently infected HUH-7 cells; details: PiB 16 μM and 8 μM, 1 hour pre-treatment plus 9 hours at 37° C.
Method: (§3) Cells persistently infected with HCV were treated with vehicle (DMSO), an MTP inhibitor (BMS-200150) capable of inhibiting HCV secretion, or with two doses of PiB (16 μM and 8 μM). After 1 hour of pre-treatment at 37° C., cells were washed with warm PBS and further incubated in normal medium containing the same drugs for an additional 9 hours at 37° C. Cell supernatants containing infectious HCV were collected for infectivity titer determination.
as §3, with “Infection assays for HCV: Persistently” for “Cells persistently”, “cells” for “with HCV”, “inhibitors” for “drugs”, “determination. […] Note that Pin1 is able to block HIV-1 in the HUH-7 cell line used to propagate HCV.” for “determination.”
Persistently infected HUH-7 cells were treated with solvent DMSO (circles), or increasing concentrations of PiB (squares). After 1 hour of pre-treatment cells were washed and further incubated in normal medium containing the same inhibitors for an additional 9 hours at 37° C. Cell supernatants containing infectious HCV were collected for infectivity titer determination.

[1] = produced with PiB, TZM, OMK, sMAGI, Vero, CV-1 target cells
[2] = produced in 293T with PiB, TZMb1 cells

CCOC(=O)CN1C(=O)c2ccc3c4c(ccc(c24)C1=O)C(=O)N(CC(=O)OCC)C3=O [PiB, diethyl-1,3,6,8-tetrahydro-1,3,6,8-tetraoxobenzo[lmn][3,8]phenanthroline-2,7-diacetate]
boost of HIV-1-GFP infectivity (HIV-1-GFP; produced in 293T with PiB, TZMb1 cells, % cells infected): 3 fold | infectivity of HIV-1-GFP in primate target cell panel (HIV-1-GFP; [1]): enhanced infectivity | boost of HIV-GFP infectivity in OMK cells (HIV-1-GFP; relative to control HIV-1 infectivity seen in sMAGI cells (no infection of OMK with control HIV-1)): 400% | infectivity of VSV-G pseudotyped macaque SIV-GFP (SIV-GFP; produced in 293T with 2.0, 10.0, 20.0 or 40.0 μM PiB): enhanced infectivity in a dose dependent manner | boost of SIV-GFP infectivity (SIV-GFP; [2]): 1.5 fold | infectivity of SIV produced in non-human primate cells (SIV-GFP; sMAGI, Vero, CV-1 (b135 also OMK) producer cells, human TZM/reporter cells): enhanced infectivity | infectivity of MLV produced in mouse embryonic fibroblasts (bMLV-GFP; MEF producer cells with PiB, TZM target cells): enhanced infectivity | boost of bMLV-GFP infectivity (bMLV-GFP; [2]): 2 fold | infectivity of bMLV-GFP in primate target cell panel (bMLV-GFP; [1]): enhanced infectivity | infectious HCV in cell supernatants (infectivity titer) (HCV): does not enhance HCV infectivity; also recorded: does not enhance replication
